Key:
[1] = L-cysteine supplementation in Zucker diabetic fatty rats: body weight, plasma lipids, liver and kidney function tests; format: in vivo, rat
Text: (§1) The animal protocol was approved by the institutional Animal Welfare Committee (P-15-006). All procedures performed were in accordance with the ethical standards of the institution. Male Zucker diabetic fatty rats at an age of 5 weeks and weighing about 200-220 g were purchased from Charles River (Wilmington, Mass., USA). The animals were allowed to acclimate to the environmental and handling conditions for 2 days. Computer generated randomization was used to divide rats into two groups, after which they were housed and labelled in individual cages. After overnight fasting they were weighed and tested for hyperglycemia by measuring their blood glucose concentration. Blood was collected via tail incision and the blood glucose levels were measured using an Advantage Accu-chek glucometer (Boehringer Mannheim Corp., Indianapolis, Ind., USA). One group of rats was labeled as diabetic controls and gavaged with saline alone. […] A third group included in the study, called the control group, consisted of male Sprague Dawley (SD) rats who were also gavaged daily with saline. […] Blood glucose and body weight were monitored weekly in all rats.
All Zucker diabetic fatty rats were fed a high calorie Purina 5008 lab chow diet (Charles River, Wilmington, Mass., USA). This diet contained 3.4 IU vitamin D3 per gram diet. Sprague Dawley rats were fed a standard 8640 lab chow diet, which contained 3 IU vitamin D3 per gram diet (Harlan, Indianapolis, Ind., USA); both Zucker diabetic fatty and Sprague Dawley rats were maintained at 22 ±2° C. with 12:12-h light/dark cycles. Food intake of all rats was monitored. The control group contained six rats. […] At the end of 8 weeks the rats were fasted overnight and euthanized by exposing them to halothane (2-bromo-2-chloro-1,1,1-trifluoroethane). Blood was drawn with a 191/2 gauge needle via cardiac puncture into vacutainer tubes. Aliquots of blood collected from all rats were sent to the clinical laboratory of LSUHSC-Shreveport for blood chemistry profiles, including liver and renal function and red blood cell counts. Plasma was isolated in a 4° C. centrifuge at 3000 rpm for 10 min from blood collected into EDTA tubes. Rat livers were perfused using cold saline. Once extracted, they were labeled appropriately, and stored at −80° C.

[2] = tested on: Zucker diabetic fatty rats; assay: L-cysteine supplementation in Zucker diabetic fatty rats: liver protein and mRNA expression, glutathione, reactive oxygen species; format: in vivo, rat; conditions: 8 weeks
Text: as §1, with “rats. Based on any change in their weights the L-cysteine supplementation dose was adjusted accordingly every week to maintain a similar dose per Kg BW over the entire period of the study.” for “rats.”
(§2) All Zucker diabetic fatty rats were fed a high calorie Purina 5008 lab chow diet (Charles River, Wilmington, Mass., USA). This diet contained 3.4 IU vitamin D3 per gram diet. Sprague Dawley rats were fed a standard 8640 lab chow diet, which contained 3 IU vitamin D3 per gram diet (Harlan, Indianapolis, Ind., USA); both Zucker diabetic fatty and Sprague Dawley rats were maintained at 22 ±2° C. with 12:12-h light/dark cycles. Food intake of all rats was monitored. The control group contained six rats. There were also six rats each in the placebo and L-cysteine-supplemented diabetic rat groups. At the end of 8 weeks the rats were fasted overnight and euthanized by exposing them to halothane (2-bromo-2-chloro-1,1,1-trifluoroethane). Blood was drawn with a 191/2 gauge needle via cardiac puncture into vacutainer tubes. Aliquots of blood collected from all rats were sent to the clinical laboratory of LSUHSC-Shreveport for blood chemistry profiles, including liver and renal function and red blood cell counts. Plasma was isolated in a 4° C. centrifuge at 3000 rpm for 10 min from blood collected into EDTA tubes. Rat livers were perfused using cold saline. Once extracted, they were labeled appropriately, and stored at −80° C.
About 50 mg of liver tissue was weighed and homogenized in 1 mL TRIzol reagent (Invitrogen, Grand Island, N.Y., USA). The RNA extraction was performed according to the instructions provided. The concentration and quality of the extracted RNA were determined on a NanoDrop spectrophotometer (Thermo Scientific, Pittsburgh, Pa., USA). A High Capacity RNA-To-cDNA kit (Invitrogen) was used to synthesize cDNA. QPCR was performed using a 7900HT Real Time PCR system and software (Applied Biosystems, Grand Island, NY, USA) using the FAM-labeled primer/probe set Rn00561256_m1 for vitamin D binding protein (also called GC), Rn00690616_m1 for vitamin D receptor, Rn01754615 ml for CYP2R1, and Rn01775763_g1 for GAPDH (Invitrogen), respectively. The relative fold change of mRNA was calculated using the relative quantification (ΔΔCT) method.
Levels of glutathione and L-cysteine were determined using HPLC. In cell culture studies, the whole cell suspension was processed for the glutathione assay. Cell viability was determined using the Alamar Blue method (Alamar Biosciences, Sacramento, Calif., USA). Details of immunoblotting are similar to those known in the art. The antibodies for vitamin D binding protein (52 KD), β-Actin (40 KD), glutamate-cysteine ligase catalytic subunit (GCLC) (75 KD), and vitamin D receptor (48 KD) were purchased from Abcam (Cambridge, Mass., USA). […]

FL83B hepatocytes = assay: L-cysteine supplementation in FL83B hepatocytes treated with control and high glucose; format: cell-based, mouse
Method: The FL83B hepatocyte cell line was purchased from American Type Culture Collection (ATCC, Manassas, Va., USA). FL83B hepatocytes were cultured and maintained in F-12K complete medium. […] Control cells were treated with mannitol, which is considered an osmolarity control in some experiments. After 24 h, complete media with serum was added and the cells were then treated as described in the figures.
Levels of glutathione and L-cysteine were determined using HPLC. In cell culture studies, the whole cell suspension was processed for the glutathione assay. Cell viability was determined using the Alamar Blue method (Alamar Biosciences, Sacramento, Calif., USA). Details of immunoblotting are similar to those known in the art. The antibodies for vitamin D binding protein (52 KD), β-Actin (40 KD), glutamate-cysteine ligase catalytic subunit (GCLC) (75 KD), and vitamin D receptor (48 KD) were purchased from Abcam (Cambridge, Mass., USA). The intensity of each immunoblotting band was measured using the histogram tool of Adobe Photoshop CS5.
mRNA extraction and cDNA synthesis were done as described in the previous section. The following primers were used for hepatocytes: vitamin D binding protein (also called GC) (Mm04243540_m1), vitamin D receptor (Mm00437297_m1), GCLC (Mm00802655_m1), and GAPDH (Mm03302249_g1) and were purchased from Invitrogen. Sequence of oligonucleotides of primers used is given in Supporting Information Material. The relative fold change of mRNA was calculated using the relative quantification (ΔΔCT) method and then normalized to % control for representation.

[3] = tested on: Zucker diabetic fatty rats; assay: L-cysteine supplementation in Zucker diabetic fatty rats: plasma levels of VDBP, 25(OH) vitamin D, glutathione, MCP-1, CRP; format: in vivo, rat; conditions: 1 mg/kg BW daily oral gavage, 8 weeks
Text: as §1, with “rats. Based on any change in their weights the L-cysteine supplementation dose was adjusted accordingly every week to maintain a similar dose per Kg BW over the entire period of the study.” for “rats.”
as §2
Plasma levels of 25(OH) vitamin D, […] were determined using an ELISA kit (Eagle Biosciences, Nashua, N.H., USA). Plasma vitamin D binding protein quantification was carried out using a kit purchased from Alpco (Salem, N.H., USA). The kit includes polyclonal antibodies that detect total vitamin D binding protein levels. The cytokines MCP-1 (R&D Systems Inc., Minneapolis, Minn., USA) and CRP (Alpco) were determined using the sandwich ELISA method and commercially available kits. In the cytokine assay, control samples were analyzed each time to check the variation from plate to plate on different days of analysis. […]
Levels of glutathione and L-cysteine were determined using HPLC. […] Cell viability was determined using the Alamar Blue method (Alamar Biosciences, Sacramento, Calif., USA). […] The intensity of each immunoblotting band was measured using the histogram tool of Adobe Photoshop CS5.

THP-1 monocytes = assay: L-cysteine and vitamin D supplementation in control and high-glucose treated THP-1 monocytes; format: cell-based, human
Method: Control cells were treated with mannitol, which is considered an osmolarity control. To investigate the role of glutathione, siRNA specific for glutamate cysteine ligase catalytic unit (the catalytic component of the enzyme) was used to knock down the enzyme and induce glutathione deficiency. Complexes of glutamate cysteine ligase catalytic unit siRNA (Santa Cruz Biotechnology) and lipofectamine (Invitrogen) were allowed to form in culture flasks in serum free media, to which cells suspended in serum free media were added. After 24 hours complete media with serum was added and the cells were then treated as described in the figures.
25-hydroxy vitamin D (calcidiol) blood test is used to determine how much vitamin D is in the body. The blood concentration of calcidiol is considered an standard indicator of vitamin D status. The kit includes polyclonal antibodies that detect total vitamin D binding protein levels. Levels of glutathione and L-cysteine were determined using HPLC. Details of immunoblotting and cell viability are similar to those given in the publication Vitamin D and 1-cysteine levels correlate positively with glutathione and negatively with insulin resistance levels in the blood of type 2 diabetic patients. Eur J Clin Nutr 68: 1148-1153, 2014 by Jain S K, Micinski D, Huning L, Kahlon G, Bass P F, and Levine SN—such described methods incorporated by reference herein. The antibodies for glutamate cysteine ligase catalytic unit (73 KD), vitamin D binding protein (52 KD), and vitamin D receptor (48 KD) were purchased from Abcam (Cambridge, Mass.).

[4] = 1 mg/kg BW daily gavage for 8 weeks, mean ± SE, n=6
[5] = 1 mg/kg BW daily oral gavage, vs placebo
[6] = hepatocytes cultured with high glucose (25 mM)
[7] = vs placebo-supplemented diabetic rats
[8] = control and high glucose (25 mM)

N[C@@H](CS)C(=O)O [L-cysteine]
Body weight [1, 4]: 346 ± 6.3 g | Triglycerides [1, 4]: 509 ± 55 mg/dL | side effects of L-cysteine supplementation ([1]; 1 mg/kg BW daily gavage for 8 weeks, vs placebo): no negative side effects | Calcium ([1]; rat, in vivo, 1 mg/kg): 9.9 ± 0.4 mg/dL | glutathione levels in liver [2, 5]: significantly higher | mRNA expression of vitamin D 25-hydroxylase (CYP2R1) in liver [2, 5]: significantly higher | mRNA expression of vitamin D binding protein in liver [2, 5]: significantly higher | protein expression of vitamin D 25-hydroxylase (CYP2R1) in liver [2, 5]: significantly higher | protein expression of vitamin D binding protein in liver [2, 5]: significantly higher | reactive oxygen species levels in liver [2, 5]: significantly lower | expression of protein for vitamin D receptor in liver ([2]; 1 mg/kg BW, higher vs placebo, p=0.17): not statistically significant | expression of mRNA for vitamin D receptor in liver ([2]; 1 mg/kg BW, higher vs placebo, p=0.30): not statistically significant | mRNA levels of vitamin D binding protein (FL83B hepatocytes; [6]): upregulation | mRNA levels of vitamin D receptor (FL83B hepatocytes; [6]): upregulation | protein expression of vitamin D binding protein (FL83B hepatocytes; [6]): upregulation | protein expression of vitamin D receptor (FL83B hepatocytes; [6]): upregulation | decrease in glutathione levels after high glucose treatment (FL83B hepatocytes; hepatocytes, high glucose (25 mM)): prevented | plasma glutathione ([3]; vs placebo): increase | blood levels of 25(OH) vitamin D [3, 7]: significantly higher | blood levels of vitamin D binding protein [3, 7]: significantly higher | CRP ([3]; plasma, vs placebo): decrease | MCP-1 ([3]; plasma, vs placebo): decrease | glutathione levels (THP-1 monocytes): significant upregulation

C=C1CC[C@H](O)C/C1=C/C=C1\CCC[C@]2(C)[C@@H]([C@H](C)CCCC(C)C)CC[C@@H]12 [vitamin D, cholecalciferol]
vitamin D binding protein expression (VDBP/actin ratio) (THP-1 monocytes; [8]): increase | vitamin D receptor protein expression (VDR/actin ratio) (THP-1 monocytes; [8]): increase
